These results are taken from ChEMBL document CHEMBL2429832, “N-substituted 8-aminopentacyclo[5.4.0.0(2,6).0(3,10).0(5,9)]undecanes as σ receptor ligands with potential neuroprotective effects” (Bioorg Med Chem, 2013).

Test [1] deals with GABA-A receptor; agonist GABA site (Homo sapiens) (UniProt P14867+P47870+P28472+P48169+P34903+P18505+P47869+P31644+Q16445). Briefly: Inhibition of GABAA receptor (unknown origin) at 10 uM by PDSP assay relative to control. In kind it is protein-complex assay.
In test [2] the target is T1, Muscarinic acetylcholine receptor M5 (Homo sapiens) (UniProt P08912).
T1 sequence (whole entry): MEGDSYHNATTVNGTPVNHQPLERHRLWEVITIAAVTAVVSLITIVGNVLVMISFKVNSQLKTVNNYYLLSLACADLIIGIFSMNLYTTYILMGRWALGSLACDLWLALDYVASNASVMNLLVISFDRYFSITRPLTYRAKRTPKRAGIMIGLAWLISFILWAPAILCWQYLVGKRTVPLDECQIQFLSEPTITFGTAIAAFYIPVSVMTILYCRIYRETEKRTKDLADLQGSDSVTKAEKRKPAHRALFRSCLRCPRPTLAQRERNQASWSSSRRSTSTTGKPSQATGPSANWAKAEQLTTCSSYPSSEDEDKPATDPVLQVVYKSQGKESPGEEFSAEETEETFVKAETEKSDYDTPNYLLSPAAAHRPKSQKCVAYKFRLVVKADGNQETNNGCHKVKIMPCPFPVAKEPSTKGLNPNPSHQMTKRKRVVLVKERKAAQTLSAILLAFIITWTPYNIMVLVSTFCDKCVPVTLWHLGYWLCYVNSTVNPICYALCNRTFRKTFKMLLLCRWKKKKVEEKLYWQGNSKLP
Briefly: Inhibition of muscarinic M5 receptor (unknown origin) at 10 uM by PDSP assay relative to control.

The target in another test is Histamine H1 receptor (Homo sapiens, UniProt P35367). Briefly: Inhibition of histamine H1 receptor (unknown origin) at 10 uM by PDSP assay relative to control.
Histamine H1 receptor, sequence (P35367 whole entry): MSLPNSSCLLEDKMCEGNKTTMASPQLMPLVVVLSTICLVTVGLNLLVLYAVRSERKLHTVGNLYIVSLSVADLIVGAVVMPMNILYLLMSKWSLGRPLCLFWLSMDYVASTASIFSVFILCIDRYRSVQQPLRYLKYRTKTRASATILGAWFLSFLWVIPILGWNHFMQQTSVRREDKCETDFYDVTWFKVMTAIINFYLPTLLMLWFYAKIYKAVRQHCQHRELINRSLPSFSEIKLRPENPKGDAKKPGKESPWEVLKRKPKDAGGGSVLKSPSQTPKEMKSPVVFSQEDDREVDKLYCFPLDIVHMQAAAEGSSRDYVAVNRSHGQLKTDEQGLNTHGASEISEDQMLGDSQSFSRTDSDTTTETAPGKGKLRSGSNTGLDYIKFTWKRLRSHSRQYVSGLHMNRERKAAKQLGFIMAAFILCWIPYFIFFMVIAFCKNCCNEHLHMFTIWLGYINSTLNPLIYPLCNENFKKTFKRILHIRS
In test [3] the target is T2, Alpha-1B adrenergic receptor (Homo sapiens) (UniProt P35368).
T2 sequence (whole entry): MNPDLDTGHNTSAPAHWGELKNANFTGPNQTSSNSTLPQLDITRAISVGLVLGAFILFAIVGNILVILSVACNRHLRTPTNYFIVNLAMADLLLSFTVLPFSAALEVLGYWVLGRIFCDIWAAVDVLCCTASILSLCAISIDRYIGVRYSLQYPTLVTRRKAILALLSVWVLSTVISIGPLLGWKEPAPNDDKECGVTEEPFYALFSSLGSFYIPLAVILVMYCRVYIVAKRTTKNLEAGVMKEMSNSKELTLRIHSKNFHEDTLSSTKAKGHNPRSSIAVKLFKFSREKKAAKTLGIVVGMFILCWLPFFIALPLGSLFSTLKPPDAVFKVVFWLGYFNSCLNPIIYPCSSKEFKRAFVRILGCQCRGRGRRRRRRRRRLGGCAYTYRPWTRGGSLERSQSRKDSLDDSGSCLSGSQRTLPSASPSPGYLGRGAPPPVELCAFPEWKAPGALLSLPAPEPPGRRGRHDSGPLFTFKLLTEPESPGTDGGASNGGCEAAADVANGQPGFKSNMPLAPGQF
Briefly: Inhibition of adrenergic alpha1B receptor (unknown origin) at 10 uM by PDSP assay relative to control.

Test [4] deals with T3, Muscarinic acetylcholine receptor M2 (Homo sapiens, UniProt P08172).
T3 sequence (P08172 whole entry): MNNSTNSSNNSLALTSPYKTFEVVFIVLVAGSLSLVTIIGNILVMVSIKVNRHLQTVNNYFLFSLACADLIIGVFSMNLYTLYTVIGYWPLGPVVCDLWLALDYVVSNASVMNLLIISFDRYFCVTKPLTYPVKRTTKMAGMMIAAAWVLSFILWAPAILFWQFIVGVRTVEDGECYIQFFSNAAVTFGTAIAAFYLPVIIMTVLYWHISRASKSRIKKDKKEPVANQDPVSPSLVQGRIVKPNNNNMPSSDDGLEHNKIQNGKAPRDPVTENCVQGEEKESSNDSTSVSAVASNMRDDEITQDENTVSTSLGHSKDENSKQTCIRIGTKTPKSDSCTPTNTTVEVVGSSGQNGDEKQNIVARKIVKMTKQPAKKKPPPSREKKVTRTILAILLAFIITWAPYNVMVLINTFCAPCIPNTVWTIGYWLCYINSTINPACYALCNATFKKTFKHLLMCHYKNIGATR
Briefly: Inhibition of muscarinic M2 receptor (unknown origin) by PDSP assay.

In test [5] the target is T4, Muscarinic acetylcholine receptor M4 (Homo sapiens, UniProt P08173).
T4 sequence (P08173 whole entry): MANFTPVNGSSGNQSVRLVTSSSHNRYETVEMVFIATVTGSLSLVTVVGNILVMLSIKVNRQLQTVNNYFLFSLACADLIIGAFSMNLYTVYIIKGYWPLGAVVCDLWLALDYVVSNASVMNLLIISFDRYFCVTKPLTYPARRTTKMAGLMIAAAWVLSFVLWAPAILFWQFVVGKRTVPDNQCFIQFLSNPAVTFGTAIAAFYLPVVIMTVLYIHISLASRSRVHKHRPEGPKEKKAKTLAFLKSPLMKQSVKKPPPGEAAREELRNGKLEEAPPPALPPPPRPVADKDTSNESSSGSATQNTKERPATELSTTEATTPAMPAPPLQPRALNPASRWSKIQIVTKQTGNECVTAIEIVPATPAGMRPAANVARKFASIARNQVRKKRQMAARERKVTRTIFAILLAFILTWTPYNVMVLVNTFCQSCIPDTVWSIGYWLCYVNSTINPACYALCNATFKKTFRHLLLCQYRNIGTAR
Briefly: Inhibition of muscarinic M4 receptor (unknown origin) by PDSP assay.

Test [6] concerns the target T5, Alpha-2C adrenergic receptor (Homo sapiens, UniProt P18825).
T5 sequence (P18825 whole entry): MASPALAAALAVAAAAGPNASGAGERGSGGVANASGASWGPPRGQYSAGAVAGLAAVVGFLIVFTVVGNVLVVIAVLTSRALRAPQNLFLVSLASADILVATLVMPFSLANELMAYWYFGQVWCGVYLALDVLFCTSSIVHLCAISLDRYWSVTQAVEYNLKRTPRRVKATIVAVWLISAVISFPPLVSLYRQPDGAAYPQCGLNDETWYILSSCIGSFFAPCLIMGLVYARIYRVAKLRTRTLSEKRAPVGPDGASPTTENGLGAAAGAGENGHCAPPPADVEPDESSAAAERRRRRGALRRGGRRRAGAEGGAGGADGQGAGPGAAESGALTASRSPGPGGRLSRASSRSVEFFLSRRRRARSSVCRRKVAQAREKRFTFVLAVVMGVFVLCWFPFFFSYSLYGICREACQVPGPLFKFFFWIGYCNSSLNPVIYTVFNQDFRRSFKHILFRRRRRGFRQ
Briefly: Inhibition of adrenergic alpha2C receptor (unknown origin) by PDSP assay.

Another test deals with Histamine H2 receptor (Homo sapiens, UniProt P25021). Briefly: Inhibition of histamine H2 receptor (unknown origin) at 10 uM by PDSP assay relative to control.
Histamine H2 receptor, sequence (P25021 whole entry): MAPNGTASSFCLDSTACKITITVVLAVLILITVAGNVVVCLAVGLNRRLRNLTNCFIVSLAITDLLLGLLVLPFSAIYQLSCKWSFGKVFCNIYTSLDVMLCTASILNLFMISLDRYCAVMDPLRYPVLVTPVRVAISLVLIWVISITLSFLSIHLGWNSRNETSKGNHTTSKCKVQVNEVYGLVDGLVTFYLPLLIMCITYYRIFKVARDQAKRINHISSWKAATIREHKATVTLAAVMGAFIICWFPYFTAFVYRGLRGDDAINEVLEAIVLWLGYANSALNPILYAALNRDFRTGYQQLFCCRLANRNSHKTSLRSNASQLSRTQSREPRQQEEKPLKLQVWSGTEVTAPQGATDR

With `CN(Cc1ccc2c(c1)OCO2)[C@H]1C2C3CC4C5C3CC2C5C41` (some centres not stated), the inhibition (in test [1]; in test [2]; at Histamine H1 receptor; in test [3]) was below 50% throughout.
For the compound `c1ccc(CCN[C@H]2C3C4CC5C6C4CC3C6C52)cc1` (some centres not stated), the inhibition constant Ki in test [4] worked out at 1.03 µM; in test [5], 0.892 µM. Moreover, the inhibition (against Histamine H1 receptor; in test [3]) was below 50% each time.
Compound `CN(CCc1ccccc1)[C@H]1C2C3CC4C5C3CC2C5C41` (some centres not stated) registered a Ki in test [6] of 0.865 µM. The inhibition (in test [1]; in test [2]; against Histamine H1 receptor; in test [3]) was below 50% throughout.
For `CN(CCc1ccccn1)[C@H]1C2C3CC4C5C3CC2C5C41` (some centres not stated), the Ki amounted to 3.55 µM in test [4] and 3.81 µM in test [5]. The inhibition (in test [1]; in test [2]; against Histamine H2 receptor; against Histamine H1 receptor; in test [3]) was below 50% each time.
For the compound `CN(Cc1cccnc1)[C@H]1C2C3CC4C5C3CC2C5C41` (some centres not stated), the Ki in test [4] is above 10 µM. In addition, the inhibition (in test [1]; in test [2]; against Histamine H2 receptor; against Histamine H1 receptor; in test [3]) was below 50% each time.
For `CN(CC1CCCCC1)[C@H]1C2C3CC4C5C3CC2C5C41` (some centres not stated), the inhibition (in test [1]; in test [2]; against Histamine H2 receptor; against Histamine H1 receptor) was below 50% each time.
With `CN(Cc1ccccc1)[C@H]1C2C3CC4C2C(=O)C2C4C3C21` (some centres not stated), the Ki stood at 0.474 µM in test [4] and 1.27 µM in test [5]. In addition, the inhibition (in test [1]; on Histamine H2 receptor; on Histamine H1 receptor; in test [3]) was below 50% each time.
Consider `COc1ccc(CN(C)[C@H]2C3C4CC5C3C(=O)C3C5C4C32)cc1OC` (some centres not stated), for which the inhibition (in test [1]; in test [2]; at Histamine H2 receptor; against Histamine H1 receptor; in test [3]) was below 50% in each case. The compound also displayed a Ki in test [5] of 7.38 µM.
In test [6], `COc1cc(CN[C@H]2C3C4CC5C6C4CC3C6C52)cc(OC)c1OC` (some centres not stated) yielded a Ki of 2.28 µM. For the same compound, the inhibition in test [1], in test [2] and in test [3] was below 50% each time.
With `COc1cc(CN(C)[C@H]2C3C4CC5C6C4CC3C6C52)cc(OC)c1OC` (some centres not stated), the Ki in test [6] worked out at 2.52 µM; in test [5] it was 5.91 µM. The inhibition (in test [1]; in test [2]; against Histamine H2 receptor; against Histamine H1 receptor; in test [3]) was below 50% throughout.
As for `CN(Cc1cccnc1)[C@H]1C2C3CC4C2C(=O)C2C4C3C21` (some centres not stated), the Ki was found to be 8.85 µM in test [4] and 6.99 µM in test [5]. The inhibition (in test [1]; in test [2]; against Histamine H2 receptor; at Histamine H1 receptor; in test [3]) was below 50% in each case.
Turning to `COc1ccc(CN[C@H]2C3C4CC5C6C4CC3C6C52)cc1OC` (some centres not stated), the inhibition in test [2] and in test [3] was below 50% in each case.
As to `CN(CCCc1cccc(F)c1)[C@H]1C2C3CC4C5C3CC2C5C41` (some centres not stated), the Ki is 3.73 µM in test [6] and 3.9 µM in test [5]. For the same compound, the inhibition (in test [1]; in test [2]; against Histamine H2 receptor; at Histamine H1 receptor; in test [3]) was below 50% in each case.
Turning to `C1C2C3CC4C2C2C1C3[C@H](NCC13C5C6C7C5C1C7C63)C42` (some centres not stated), the Ki in test [4] was 0.195 µM; in test [6], 0.683 µM; in test [5], 0.354 µM. Moreover, the inhibition in test [1] and in test [3] was below 50% each time.
For the compound `c1ccc(CCN[C@H]2C3C4CC5C6C4CC3C6C52)nc1` (some centres not stated), the Ki in test [4] was 2.79 µM; in test [5], 1.3 µM. Moreover, the inhibition against Histamine H2 receptor and against Histamine H1 receptor was below 50% in each case.
As for `CN(Cc1ccccc1)[C@H]1C2C3CC4C5C3CC2C5C41` (some centres not stated), the inhibition (in test [1]; in test [2]; against Histamine H1 receptor; in test [3]) was below 50% throughout.
Take `COc1ccc(CN(C)[C@H]2C3C4CC5C6C4CC3C6C52)cc1OC` (some centres not stated): the Ki worked out at 0.993 µM in test [6] and 6.81 µM in test [5]. The inhibition (in test [1]; in test [2]; against Histamine H1 receptor; in test [3]) was below 50% each time.
As for `c1cc2c(cc1CN[C@H]1C3C4CC5C6C4CC3C6C51)OCO2` (some centres not stated), the Ki in test [4] turned out to be 4.41 µM; in test [6] it was 3.08 µM; in test [5] it was 6.53 µM. Further, the inhibition in test [1], in test [2] and in test [3] was below 50% each time.
With `CN(CCc1ccccc1)[C@H]1C2C3CC4C2C(=O)C2C4C3C21` (some centres not stated), the Ki is 1.94 µM in test [4], 3.98 µM in test [6] and 3.59 µM in test [5]. The inhibition (in test [1]; against Histamine H1 receptor; in test [3]) was below 50% in each case.
For the compound `c1ccc(CN[C@H]2C3C4CC5C6C4CC3C6C52)cc1` (some centres not stated), the inhibition in test [2] is below 50%.
With `CN(CCc1ccccn1)[C@H]1C2C3CC4C2C(=O)C2C4C3C21` (some centres not stated), in test [4], the Ki was above 10 µM. For the same compound, the inhibition (in test [1]; in test [2]; at Histamine H2 receptor; on Histamine H1 receptor; in test [3]) was below 50% throughout.
